{"source": "patent US9115093B2", "about": "“Substituted bicyclic dihydropyrimidinones and their use as inhibitors of neutrophil elastase activity” (Boehringer Ingelheim International GmbH, priority 2013, dated 2015)"}
{"biological_target": "T1, neutrophil elastase (Homo sapiens, UniProt P08246)", "T1 sequence (P08246 30-247 limits assumed)": "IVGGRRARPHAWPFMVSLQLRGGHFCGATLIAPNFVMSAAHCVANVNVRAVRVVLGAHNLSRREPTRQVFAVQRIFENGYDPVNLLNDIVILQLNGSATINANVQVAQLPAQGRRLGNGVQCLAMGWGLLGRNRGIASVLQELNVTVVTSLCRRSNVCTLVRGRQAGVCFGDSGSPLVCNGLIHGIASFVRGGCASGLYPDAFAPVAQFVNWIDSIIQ", "assay": "Human Neutrophil Elastase Assay", "type": "biochemical", "set-up": "purchased Calbiochem 324681", "settings": "substrate MeOSuc-Ala-Ala-Pro-Val-AMC, pH 7.5, room temperature", "method": "Human Neutrophil Elastase Assay\nMaterials: Human neutrophil elastase was purchased from Calbiochem (Cat.No.: 324681) and the elastase substrate MeOSuc-Ala-Ala-Pro-Val-AMC from Bachem (Cat.No.: I-1270). All other materials were of the highest grade commercially available.\nThe following buffers were used: Compound buffer: 100 mM Tris, 500 mM NaCl, adjusted to pH 7.5; Assay buffer: 100 mM Tris, 500 mM NaCl, adjusted to pH 7.5, containing 0.01% BSA.\nAssay conditions: Test compounds were prediluted in DMSO and subsequently in compound buffer (5% DMSO final). 5 μL of these compound dilutions were mixed with 10 μl Neutrophil elastase (9 ng/ml in assay buffer) in a black 384 well OptiPlate (Perkin Elmer, Cat No.: 6007270) and incubated for 15 min at room temperature. Subsequently 10 μL substrate solution in assay buffer were added (250 nM final concentration) and the plates were incubated for 60 min at room temperature. After inactivation of the enzyme, fluorescence intensities were measured at 380 nm excitation and 460 nm emission wavelengths.\nEach plate contains wells with a high value control (DMSO+enzyme+substrate) and wells with a low value control (DMSO+inactivated enzyme+substrate). IC50 values were estimated using a sigmoidal concentration response curve with variable slope. Means of low values were taken as 0%, means of high values as 100%.", "units": {"IC50": "nM"}}
{"smiles": "N#Cc1ccc([C@@H]2C3=C(CCCC3=O)N(c3cccc(C(F)(F)F)c3)C(=O)N2CC(=O)O)cc1", "note": "[Example 32A, (R)-2-(4-(4-Cyanophenyl)-2,5-dioxo-1-(3-(trifluoromethyl)phenyl)-1,2,5,6,7,8-hexahydroquinazolin-3(4H)-yl)acetic acid]", "IC50": 4.6}
{"smiles": "N#Cc1ccc([C@H]2C3=C(CCCC3=O)N(c3cccc(C(F)(F)F)c3)C(=O)N2CC(=O)O)cc1", "note": "[Example 32B, (S)-2-(4-(4-Cyanophenyl)-2,5-dioxo-1-(3-(trifluoromethyl)phenyl)-1,2,5,6,7,8-hexahydroquinazolin-3(4H)-yl)acetic acid]", "IC50": 1410}
{"smiles": "N#Cc1ccc(C2C3=C(CCCC3=O)N(c3cccc(C(F)(F)F)c3)C(=O)N2CC(N)=O)cc1", "note": "(centres unmarked) [Example 33, 2-(4-(4-Cyanophenyl)-2,5-dioxo-1-(3-(trifluoromethyl)phenyl)-1,2,5,6,7,8-hexahydroquinazolin-3(4H)-yl)acetamide]", "IC50": 9.6}
{"smiles": "CN(C)C(=O)CN1C(=O)N(c2cccc(C(F)(F)F)c2)C2=C(C(=O)CCC2)C1c1ccc(C#N)cc1", "note": "(centres unmarked) [Example 34, 2-(4-(4-Cyanophenyl)-2,5-dioxo-1-(3-(trifluoromethyl)phenyl)-1,2,5,6,7,8-hexahydroquinazolin-3(4H)-yl)-N,N-dimethylacetamide]", "IC50": 3.1}
{"smiles": "Cn1ncc2c1CN(C(=O)CN1C(=O)N(c3cccc(C(F)(F)F)c3)C3=C(C(=O)CCC3)C1c1ccc(C#N)cc1)C2", "note": "(centres unmarked) [Example 35, 4-(3-(2-(1-Methylpyrrolo[3,4-c]pyrazol-5(1H,4H,6H)-yl)-2-oxoethyl)-2,5-dioxo-1-(3-(trifluoromethyl)phenyl)-1,2,3,4,5,6,7,8-octahydroquinazolin-4-yl)benzonitrile]", "IC50": 1.7}
{"smiles": "CNC(=O)CN1C(=O)N(c2cccc(C(F)(F)F)c2)C2=C(C(=O)CCC2)C1c1ccc(C#N)cc1", "note": "(centres unmarked) [Example 36.1]", "IC50": 6.4}
{"smiles": "N#Cc1ccc(C2C3=C(CCCC3=O)N(c3cccc(C(F)(F)F)c3)C(=O)N2CC(=O)NC2CC2)cc1", "note": "(centres unmarked) [Example 36.2]", "IC50": 13.1}
{"smiles": "N#Cc1ccc(C2C3=C(CCCC3=O)N(c3cccc(C(F)(F)F)c3)C(=O)N2CC(=O)NCC2CC2)cc1", "note": "(centres unmarked) [Example 36.3]", "IC50": 20.8}
{"smiles": "CN(C(=O)CN1C(=O)N(c2cccc(C(F)(F)F)c2)C2=C(C(=O)CCC2)C1c1ccc(C#N)cc1)C1CC1", "note": "(centres unmarked) [Example 36.4]", "IC50": 2.4}
{"smiles": "COCCNC(=O)CN1C(=O)N(c2cccc(C(F)(F)F)c2)C2=C(C(=O)CCC2)C1c1ccc(C#N)cc1", "note": "(centres unmarked) [Example 36.5]", "IC50": 13.5}
{"smiles": "N#Cc1ccc(C2C3=C(CCCC3=O)N(c3cccc(C(F)(F)F)c3)C(=O)N2CC(=O)N2CC3CC3C2)cc1", "note": "(centres unmarked) [Example 36.6]", "IC50": 1.2}
{"smiles": "CN(CC1CC1)C(=O)CN1C(=O)N(c2cccc(C(F)(F)F)c2)C2=C(C(=O)CCC2)C1c1ccc(C#N)cc1", "note": "(centres unmarked) [Example 36.7]", "IC50": 3.4}
{"smiles": "N#Cc1ccc(C2C3=C(CCCC3=O)N(c3cccc(C(F)(F)F)c3)C(=O)N2CC(=O)N2CCC(O)C2)cc1", "note": "(centres unmarked) [Example 36.8]", "IC50": 2.1}
{"smiles": "N#Cc1ccc(C2C3=C(CCCC3=O)N(c3cccc(C(F)(F)F)c3)C(=O)N2CC(=O)NC2CCOC2)cc1", "note": "(centres unmarked) [Example 36.9]", "IC50": 10.6}
{"smiles": "CN(C)CCNC(=O)CN1C(=O)N(c2cccc(C(F)(F)F)c2)C2=C(C(=O)CCC2)C1c1ccc(C#N)cc1", "note": "(centres unmarked) [Example 36.10]", "IC50": 20}
{"smiles": "N#Cc1ccc(C2C3=C(CCCC3=O)N(c3cccc(C(F)(F)F)c3)C(=O)N2CC(=O)N2CCC(F)C2)cc1", "note": "(centres unmarked) [Example 36.11]", "IC50": 5.1}
{"smiles": "COCCN(C)C(=O)CN1C(=O)N(c2cccc(C(F)(F)F)c2)C2=C(C(=O)CCC2)C1c1ccc(C#N)cc1", "note": "(centres unmarked) [Example 36.12]", "IC50": 6.6}
{"smiles": "COCCCNC(=O)CN1C(=O)N(c2cccc(C(F)(F)F)c2)C2=C(C(=O)CCC2)C1c1ccc(C#N)cc1", "note": "(centres unmarked) [Example 36.13]", "IC50": 20.5}
{"smiles": "CC(C)(O)CNC(=O)CN1C(=O)N(c2cccc(C(F)(F)F)c2)C2=C(C(=O)CCC2)C1c1ccc(C#N)cc1", "note": "(centres unmarked) [Example 36.14]", "IC50": 8.1}
{"smiles": "N#Cc1ccc(C2C3=C(CCCC3=O)N(c3cccc(C(F)(F)F)c3)C(=O)N2CC(=O)NCc2ccco2)cc1", "note": "(centres unmarked) [Example 36.15]", "IC50": 17.5}
{"smiles": "N#Cc1ccc(C2C3=C(CCCC3=O)N(c3cccc(C(F)(F)F)c3)C(=O)N2CC(=O)N2CCC3(CC3)C2)cc1", "note": "(centres unmarked) [Example 36.16]", "IC50": 3.6}
{"smiles": "N#Cc1ccc(C2C3=C(CCCC3=O)N(c3cccc(C(F)(F)F)c3)C(=O)N2CC(=O)N2CC3(CCC3)C2)cc1", "note": "(centres unmarked) [Example 36.17]", "IC50": 5.5}
{"smiles": "CC1CN(C(=O)CN2C(=O)N(c3cccc(C(F)(F)F)c3)C3=C(C(=O)CCC3)C2c2ccc(C#N)cc2)CC1C", "note": "(centres unmarked) [Example 36.18]", "IC50": 4}
{"smiles": "CC1CCN(C(=O)CN2C(=O)N(c3cccc(C(F)(F)F)c3)C3=C(C(=O)CCC3)C2c2ccc(C#N)cc2)CC1", "note": "(centres unmarked) [Example 36.19]", "IC50": 10.2}
{"smiles": "N#Cc1ccc(C2C3=C(CCCC3=O)N(c3cccc(C(F)(F)F)c3)C(=O)N2CC(=O)N[C@H]2CCNC2=O)cc1", "note": "(some centres unmarked) [Example 36.20]", "IC50": 11.4}
{"smiles": "N#Cc1ccc(C2C3=C(CCCC3=O)N(c3cccc(C(F)(F)F)c3)C(=O)N2CC(=O)N2CCNC(=O)C2)cc1", "note": "(centres unmarked) [Example 36.21]", "IC50": 2.1}
{"smiles": "N#Cc1ccc(C2C3=C(CCCC3=O)N(c3cccc(C(F)(F)F)c3)C(=O)N2CC(=O)NCC2CCOC2)cc1", "note": "(centres unmarked) [Example 36.22]", "IC50": 6.8}
{"smiles": "COC1CCN(C(=O)CN2C(=O)N(c3cccc(C(F)(F)F)c3)C3=C(C(=O)CCC3)C2c2ccc(C#N)cc2)C1", "note": "(centres unmarked) [Example 36.23]", "IC50": 2.1}
{"smiles": "N#Cc1ccc(C2C3=C(CCCC3=O)N(c3cccc(C(F)(F)F)c3)C(=O)N2CC(=O)NCC2CCCO2)cc1", "note": "(centres unmarked) [Example 36.24]", "IC50": 10.1}
{"smiles": "CC1(O)CCN(C(=O)CN2C(=O)N(c3cccc(C(F)(F)F)c3)C3=C(C(=O)CCC3)C2c2ccc(C#N)cc2)C1", "note": "(centres unmarked) [Example 36.25]", "IC50": 1.7}
{"smiles": "CC(=O)NCCNC(=O)CN1C(=O)N(c2cccc(C(F)(F)F)c2)C2=C(C(=O)CCC2)C1c1ccc(C#N)cc1", "note": "(centres unmarked) [Example 36.26]", "IC50": 17.8}
{"smiles": "N#Cc1ccc(C2C3=C(CCCC3=O)N(c3cccc(C(F)(F)F)c3)C(=O)N2CC(=O)N2CCSCC2)cc1", "note": "(centres unmarked) [Example 36.28]", "IC50": 4.4}
{"smiles": "C[S+]([O-])CCNC(=O)CN1C(=O)N(c2cccc(C(F)(F)F)c2)C2=C(C(=O)CCC2)C1c1ccc(C#N)cc1", "note": "(centres unmarked) [Example 36.29]", "IC50": 9.5}
{"smiles": "N#Cc1ccc(C2C3=C(CCCC3=O)N(c3cccc(C(F)(F)F)c3)C(=O)N2CC(=O)NCCn2ccnc2)cc1", "note": "(centres unmarked) [Example 36.30]", "IC50": 5.9}
{"smiles": "Cn1cc(CNC(=O)CN2C(=O)N(c3cccc(C(F)(F)F)c3)C3=C(C(=O)CCC3)C2c2ccc(C#N)cc2)cn1", "note": "(centres unmarked) [Example 36.31]", "IC50": 7.8}
{"smiles": "N#Cc1ccc(C2C3=C(CCCC3=O)N(c3cccc(C(F)(F)F)c3)C(=O)N2CC(=O)NCCn2cccn2)cc1", "note": "(centres unmarked) [Example 36.32]", "IC50": 14}
{"smiles": "Cn1ccc(CNC(=O)CN2C(=O)N(c3cccc(C(F)(F)F)c3)C3=C(C(=O)CCC3)C2c2ccc(C#N)cc2)n1", "note": "(centres unmarked) [Example 36.33]", "IC50": 17.1}
{"smiles": "N#Cc1ccc(C2C3=C(CCCC3=O)N(c3cccc(C(F)(F)F)c3)C(=O)N2CC(=O)N2CCC3(CC2)CC3)cc1", "note": "(centres unmarked) [Example 36.34]", "IC50": 10.7}
{"smiles": "Cc1nnc(CNC(=O)CN2C(=O)N(c3cccc(C(F)(F)F)c3)C3=C(C(=O)CCC3)C2c2ccc(C#N)cc2)o1", "note": "(centres unmarked) [Example 36.35]", "IC50": 7}
{"smiles": "N#Cc1ccc(C2C3=C(CCCC3=O)N(c3cccc(C(F)(F)F)c3)C(=O)N2CC(=O)NCC2CCC(=O)N2)cc1", "note": "(centres unmarked) [Example 36.36]", "IC50": 7.9}
{"smiles": "CN1CCN(C(=O)CN2C(=O)N(c3cccc(C(F)(F)F)c3)C3=C(C(=O)CCC3)C2c2ccc(C#N)cc2)CC1=O", "note": "(centres unmarked) [Example 36.37]", "IC50": 4.2}
{"smiles": "CN1CCC(NC(=O)CN2C(=O)N(c3cccc(C(F)(F)F)c3)C3=C(C(=O)CCC3)C2c2ccc(C#N)cc2)CC1", "note": "(centres unmarked) [Example 36.38]", "IC50": 16.9}
{"smiles": "CN1CCCC1CNC(=O)CN1C(=O)N(c2cccc(C(F)(F)F)c2)C2=C(C(=O)CCC2)C1c1ccc(C#N)cc1", "note": "(centres unmarked) [Example 36.39]", "IC50": 26.3}
{"smiles": "COC1CCN(C(=O)CN2C(=O)N(c3cccc(C(F)(F)F)c3)C3=C(C(=O)CCC3)C2c2ccc(C#N)cc2)CC1", "note": "(centres unmarked) [Example 36.40]", "IC50": 3.1}
{"smiles": "CN(CC1(C)COC1)C(=O)CN1C(=O)N(c2cccc(C(F)(F)F)c2)C2=C(C(=O)CCC2)C1c1ccc(C#N)cc1", "note": "(centres unmarked) [Example 36.41]", "IC50": 7.4}
{"smiles": "N#Cc1ccc(C2C3=C(CCCC3=O)N(c3cccc(C(F)(F)F)c3)C(=O)N2CC(=O)NCC2CCCOC2)cc1", "note": "(centres unmarked) [Example 36.42]", "IC50": 9.9}
{"smiles": "CN(C)CCCN(C)C(=O)CN1C(=O)N(c2cccc(C(F)(F)F)c2)C2=C(C(=O)CCC2)C1c1ccc(C#N)cc1", "note": "(centres unmarked) [Example 36.43]", "IC50": 12.1}
{"smiles": "N#Cc1ccc(C2C3=C(CCCC3=O)N(c3cccc(C(F)(F)F)c3)C(=O)N2CC(=O)N2Cc3ccccc3C2)cc1", "note": "(centres unmarked) [Example 36.44]", "IC50": 9.3}
{"smiles": "N#Cc1ccc(C2C3=C(CCCC3=O)N(c3cccc(C(F)(F)F)c3)C(=O)N2CC(=O)N2CC[S+]([O-])CC2)cc1", "note": "(centres unmarked) [Example 36.45]", "IC50": 2.1}
{"smiles": "N#Cc1ccc(C2C3=C(CCCC3=O)N(c3cccc(C(F)(F)F)c3)C(=O)N2CC(=O)N2Cc3cccnc3C2)cc1", "note": "(centres unmarked) [Example 36.46]", "IC50": 1.2}
